Consider seven molecules from PMC11292009, “Mapping protein binding sites by photoreactive fragment pharmacophores” (Communications Chemistry, 2024).

Holding throughout (type): binding
The test system of assay [1] is T1, KRas^G12D.
T1 construct: purchased GSK/GenScript
Put plainly: Intact MS photoaffinity labeling screen, KRas G12D (302 nm, LCMS-TOF). The settings on record: for MS labeling percentage, KRas: KRas G12D, 302 nm 10 min; for KRAS-G12D: experimental hit status flag (0/1). The procedure, abridged:
(§1)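 Labeling detected as mass additions in deconvoluted intact-protein LCMS-TOF spectra. Protein at 1 μM in PBS was first mixed with one fragment per well on ice for 15 min, followed by 10 min UV exposure at 302 nm.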

For assay [2], the system named is carbonic anhydrase II (CA). The assay is described as follows: Intact protein MS photoaffinity labeling screen, carbonic anhydrase. The settings on record: intact protein MS after 10 min irradiation. The procedure, abridged: (§2)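 Plate format, one fragment/well; 15 min incubation with protein for non-covalent complex formation; direct intact-protein MS read from plate; labeling % from adduct mass additions.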

For assay [3], the system named is T2, STAT5B-NTD.
T2 construct: His-SUMO (N, cleaved yes); made in house; host or cells: E. coli BL21 RILP
The assay is described as follows: Intact MS photoaffinity labeling screen, STAT5B-NTD (365 nm, UHPLC-MS).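 On MS labeling percentage, STAT5B: 0.17 µL of 100 mM DMSO fragment stock added to the protein sample.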 The conditions noted are these: for MS labeling percentage, STAT5B: STAT5B-NTD, 365 nm 10 min, no photocatalyst; for STAT5B-NTD: experimental hit status flag (0/1). The procedure, abridged:
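Intact-protein labeling detected by UHPLC-MS in positive ion mode over m/z 100–2000. Samples were first photo-crosslinked at 365 nm for 10 min at 4 °C. Before irradiation, 7 µM STAT5B in PBS pH 7.4 was pre-incubated with probe for 1 h in the dark at room temperature.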

The test system of assay [4] is myoglobin (Myo). The assay is described as follows: Intact protein MS photoaffinity labeling screen, myoglobin. The settings on record: intact protein MS after 10 min irradiation. The procedure, abridged: as §2
Assay [5] has as its system T2, STAT5B-NTD. Put plainly: Intact MS labeling screen, STAT5B-NTD conjugated with photocatalyst Ir-G2-PEG3-COOH (450 nm).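 Further: 0.14 µL of 100 mM DMSO fragment stock added to the conjugate.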 The conditions noted are these: 450 nm 10 min. The procedure, abridged:
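Ir-G2-PEG3-COOH photocatalyst (10 eq) activated 30 min with EDC/NHS/BOP, then conjugated to STAT5B-NTD (7 µM) overnight at RT or 1 h at 37 °C in dark. PhP added, 1 h dark, then 450 nm irradiation 10 min at 4 °C; labeling read by intact LC-MS, positive ion mode, m/z 100–2000.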

The test system of assay [6] is lysozyme (Lyo). Put plainly: Intact protein MS photoaffinity labeling screen, lysozyme. The conditions noted are these: intact protein MS after 10 min irradiation. The procedure, abridged:
as §2

Assay [7] deals with T3, BRD4-BD1.
T3 construct: screened the PhP library against the first bromodomain of BRD4 (BRD4-BD1); purchased GSK/GenScript
The assay is described as follows: Intact MS photoaffinity labeling screen, BRD4-BD1 (302 nm, LCMS-TOF). The conditions noted are these: for MS labeling percentage, BRD4: BRD4-BD1, 302 nm 10 min; for BRD4-BD1: experimental hit status flag (0/1). The procedure, abridged:
as §1

Setting [8] is: PhP library sheet "PhP", binary flag printed as 0 or 1, key not given.
Where [9] appears, read: hit flag 1/0, sheet PhP, photoaffinity labeling screen.
[10] abbreviates: sheet PhP, experimental hit status flag given as 0 or 1.

With `CC1(CCC(=O)Nc2ccc3oc(CN4CCCC4)nc3c2)N=N1` [PhP089, N1=NC1(C)CCC(=O)Nc2ccc3oc(CN4CCCC4)nc3c2], the “MS labeling percentage, KRas” value in assay [1] is recorded as 0%. Also, the “KRAS-G12D (experimental hit status)” value in assay [1] (setting [8]) was 0. In addition, in assay [2], the “MS labeling percentage, CA” value is 0.4%. Further, the “STAT5B-NTD (experimental hit status)” value in assay [3] (setting [8]) is 0. Further, in assay [3], the “MS labeling percentage, STAT5B” value worked out at 1%. The “MS labeling percentage, Myo” value in assay [4] worked out at 0.1%. Further, the “MS labeling percentage, STAT5B+photocat” value in assay [5] came out at 1%. Besides, the “MS labeling percentage, Lyo” value in assay [6] is 0%. The “MS labeling percentage, BRD4” value in assay [7] was determined as 0.2%. In addition, in assay [7] (setting [8]), the “BRD4-BD1 (experimental hit status)” value worked out at 0.
In the case of `CC1(CCC(=O)NCc2ccc(-c3cncnc3)cc2)N=N1` [PhP052, N1=NC1(C)CCC(=O)NCc2ccc(cc2)-c3cncnc3], in assay [1], the “MS labeling percentage, KRas” value turned out to be 1.3%. In addition, in assay [1] (setting [9]), the “KRAS-G12D (experimental hit status)” value is 0. In addition, the “MS labeling percentage, CA” value in assay [2] is reported as 1.2%. Besides, in assay [3], the “MS labeling percentage, STAT5B” value is listed as 1%. The “STAT5B-NTD (experimental hit status)” value in assay [3] (setting [9]) is given as 0. In assay [4], the “MS labeling percentage, Myo” value was determined as 1.3%. For the same molecule, the “MS labeling percentage, STAT5B+photocat” value in assay [5] was found to be 11.4%. Also, the “MS labeling percentage, Lyo” value in assay [6] is 0%. Besides, in assay [7], the “MS labeling percentage, BRD4” value came to 1.5%. The “BRD4-BD1 (experimental hit status)” value in assay [7] (setting [9]) is reported as 0.
`COc1ccc(-c2csc(CCNC(=O)CCC3(C)N=N3)n2)cc1` [PhP006, COc1ccc(cc1)-c2csc(n2)CCNC(=O)CCC3(C)N=N3]: in assay [1], the “MS labeling percentage, KRas” value was determined as 1.3% and the KRAS-G12D was determined as 0. Besides, in assay [2], the “MS labeling percentage, CA” value came out at 0.6%. In assay [3], the “MS labeling percentage, STAT5B” value is on record as 0% and the STAT5B-NTD is on record as 0. Also, the “MS labeling percentage, Myo” value in assay [4] stood at 0.3%. For the same molecule, the “MS labeling percentage, STAT5B+photocat” value in assay [5] came to 3.3%. Moreover, the “MS labeling percentage, Lyo” value in assay [6] came to 0%. In assay [7], the “MS labeling percentage, BRD4” value is given as 2.3% and the BRD4-BD1 was 0.
Turning to `CC(Cc1cccc(OCc2ccccc2)c1)NC(=O)CCC1(C)N=N1` (centres unmarked) [PhP013, N1=NC1(C)CCC(=O)NC(C)Cc2cccc(c2)OCc3ccccc3], the KRAS-G12D in assay [1] was 0. For the same molecule, in assay [2], the “MS labeling percentage, CA” value was 0.4%. In assay [3], the “MS labeling percentage, STAT5B” value is reported as 0% and the STAT5B-NTD came to 0. Besides, in assay [4], the “MS labeling percentage, Myo” value worked out at 0.3%. Further, the “MS labeling percentage, STAT5B+photocat” value in assay [5] is reported as 8.8%. The “MS labeling percentage, Lyo” value in assay [6] is given as 0.3%. In assay [7], the “MS labeling percentage, BRD4” value came to 40.6% and the BRD4-BD1 is recorded as 0.
For the molecule `CC1(CCC(=O)N[C@@H](Cc2cccc(F)c2)CN2C(=O)c3ccccc3C2=O)N=N1` [PhP079, Fc(c1)cccc1C[C@H](NC(=O)CCC2(C)N=N2)CN(C3=O)C(=O)c(c34)cccc4], in assay [1], the “MS labeling percentage, KRas” value came out at 0.5%. For the same molecule, the “KRAS-G12D (experimental hit status)” value in assay [1] (setting [8]) is given as 0. Also, the “MS labeling percentage, CA” value in assay [2] is given as 0.5%. The “STAT5B-NTD (experimental hit status)” value in assay [3] (setting [8]) worked out at 0. The “MS labeling percentage, STAT5B” value in assay [3] is on record as 0%. In addition, the “MS labeling percentage, Myo” value in assay [4] came to 0.4%. Further, in assay [5], the “MS labeling percentage, STAT5B+photocat” value is 1.2%. In assay [6], the “MS labeling percentage, Lyo” value is 0.3%. In assay [7] (setting [8]), the “BRD4-BD1 (experimental hit status)” value is given as 0.
For the molecule `CC1(CCC(=O)Nc2ccc3c(c2)NC(=O)CC3)N=N1` [PhP075, N1=NC1(C)CCC(=O)Nc(cc2)cc(c23)NC(=O)CC3], the “MS labeling percentage, KRas” value in assay [1] is on record as 0.2%. For the same molecule, in assay [1] (setting [10]), the “KRAS-G12D (experimental hit status)” value is recorded as 0. The “MS labeling percentage, CA” value in assay [2] worked out at 0.2%. Moreover, the “MS labeling percentage, STAT5B” value in assay [3] stood at 2%. In assay [3] (setting [10]), the “STAT5B-NTD (experimental hit status)” value is recorded as 0. The “MS labeling percentage, Myo” value in assay [4] is 0.1%. Also, the “MS labeling percentage, STAT5B+photocat” value in assay [5] is given as 0.5%. For the same molecule, the “MS labeling percentage, Lyo” value in assay [6] turned out to be 0%. The “MS labeling percentage, BRD4” value in assay [7] was determined as 1.3%. Moreover, the “BRD4-BD1 (experimental hit status)” value in assay [7] (setting [10]) was 0.
As for `COc1ccccc1OCCNC(=O)CCC1(C)N=N1` [PhP044, COc1ccccc1OCCNC(=O)CCC2(C)N=N2], in assay [1], the “MS labeling percentage, KRas” value is 0%. For the same molecule, in assay [1] (setting [9]), the “KRAS-G12D (experimental hit status)” value is 0. The “MS labeling percentage, CA” value in assay [2] is recorded as 0.2%. Further, the “MS labeling percentage, STAT5B” value in assay [3] came out at 1%. In assay [3] (setting [9]), the “STAT5B-NTD (experimental hit status)” value is listed as 0. In assay [4], the “MS labeling percentage, Myo” value is listed as 0%. In addition, the “MS labeling percentage, STAT5B+photocat” value in assay [5] came out at 1.4%. Also, in assay [6], the “MS labeling percentage, Lyo” value amounted to 0%. In addition, in assay [7], the “MS labeling percentage, BRD4” value is recorded as 0.2%. The “BRD4-BD1 (experimental hit status)” value in assay [7] (setting [9]) was found to be 0.
